The values that follow come from ChEMBL document CHEMBL1944583, “Synthesis and evaluation of hexahydropyrrolo[3,4-d]isoxazole-4,6-diones as anti-stress agents” (Eur J Med Chem, 2012).

One may read the half-life as how long it takes for the measured level to halve.

Activity calls are given as the source filed them. The rule behind the calls is not given here.

Data set [1] has as its system Mus musculus. Briefly: Antistress activity in Swiss albino mouse assessed as reversal of immobilization stress-induced decrease in frequency of head dip at 5 mg/kg, ip administered 60 mins before stress induction measured after 10 mins by hole board test. Also noted: dose 5 mg/kg. The data set is classed as functional, organism-based.
Data set [2] has as its system Mus musculus. Briefly: Antistress activity in Swiss albino mouse assessed as reversal of immobilization stress-induced decrease in frequency of head dip at 10 mg/kg, ip administered 60 mins before stress induction measured after 10 mins by hole board test. The data set is classed as functional, organism-based. Set-up: dose 10 mg/kg.
Data set [3] has as its system Mus musculus. Nature of the data set: Antistress activity in Swiss albino mouse assessed as reversal of immobilization stress-induced decrease in frequency of head dip at 2 mg/kg, ip administered 60 mins before stress induction measured after 10 mins by hole board test. Also noted: dose 2 mg/kg. The data set is classed as functional, organism-based.
Data set [4] has as its system Mus musculus. Nature of the data set: Antistress activity in Swiss albino mouse assessed as reversal of immobilization stress-induced decrease in rearing at 5 mg/kg, ip administered 60 mins before stress induction measured after 10 mins by hole board test. It counts as functional, organism-based. Set-up: dose 5 mg/kg.
In data set [5] the test system is Mus musculus. Briefly: Antistress activity in Swiss albino mouse assessed as reversal of immobilization stress-induced decrease in rearing at 10 mg/kg, ip administered 60 mins before stress induction measured after 10 mins by hole board test. The data set is classed as functional, organism-based. Also noted: dose 10 mg/kg.
In data set [6] the test system is Mus musculus. Nature of the data set: Antistress activity in Swiss albino mouse assessed as reversal of immobilization stress-induced decrease in rearing at 2 mg/kg, ip administered 60 mins before stress induction measured after 10 mins by hole board test. The data set is classed as functional, organism-based. Also noted: dose 2 mg/kg.
Data set [7] concerns Mus musculus. Nature of the data set: Toxicity in Swiss albino mouse assessed as increase in frequency of head dips at 10 mg/kg, ip. The data set is classed as organism-based. Set-up: dose 10 mg/kg, route intraperitoneal. The conditions noted are these: in vivo.
Data set [8] relates to Mus musculus. Briefly: Toxicity in Swiss albino mouse assessed as increase in frequency of rearing at 10 mg/kg, ip. Set-up: dose 10 mg/kg, route intraperitoneal. The data set is classed as organism-based. The conditions noted are these: in vivo.
Data set [9] deals with Mus musculus. Briefly: Antistress activity in Swiss albino mouse assessed as reversal of immobilization stress-induced decrease in number of line crossing at 5 mg/kg, ip administered 60 mins before stress induction measured after 10 mins by open field test. It counts as functional, organism-based. Set-up: dose 5 mg/kg.
The subject of data set [10] is Mus musculus. Nature of the data set: Antistress activity in Swiss albino mouse assessed as reversal of immobilization stress-induced decrease in number of line crossing at 10 mg/kg, ip administered 60 mins before stress induction measured after 10 mins by open field test. Set-up: dose 10 mg/kg. The data set is classed as functional, organism-based.
Data set [11] concerns Mus musculus. Nature of the data set: Antistress activity in Swiss albino mouse assessed as reversal of immobilization stress-induced decrease in frequency of rearing at 5 mg/kg, ip administered 60 mins before stress induction measured after 10 mins by open field test. The data set is classed as functional, organism-based. Also noted: dose 5 mg/kg.
Data set [12] concerns Mus musculus. Nature of the data set: Antistress activity in Swiss albino mouse assessed as reversal of immobilization stress-induced decrease in frequency of rearing at 10 mg/kg, ip administered 60 mins before stress induction measured after 10 mins by open field test. The data set is classed as functional, organism-based. Set-up: dose 10 mg/kg.
Data set [13] has as its system Mus musculus. Briefly: Antistress activity in Swiss albino mouse assessed as reversal of immobilization stress-induced decrease in non-social behavior at 5 mg/kg, ip administered 60 mins before stress induction measured after 10 mins by open field test. It counts as functional, organism-based. Set-up: dose 5 mg/kg.
For data set [14], the system named is Mus musculus. Nature of the data set: Antistress activity in Swiss albino mouse assessed as reversal of immobilization stress-induced decrease in non-social behavior at 10 mg/kg, ip administered 60 mins before stress induction measured after 10 mins by open field test. Also noted: dose 10 mg/kg. The data set is classed as functional, organism-based.
Data set [15] relates to Mus musculus. Nature of the data set: Antistress activity in Swiss albino mouse assessed as reversal of immobilization stress-induced decrease in locomotor activity at 5 mg/kg, ip administered 60 mins before stress induction measured every 5 mins by actophotometer test. The data set is classed as functional, organism-based. Also noted: dose 5 mg/kg.
Data set [16] deals with Mus musculus. Briefly: Antistress activity in Swiss albino mouse assessed as reversal of immobilization stress-induced decrease in locomotor activity at 10 mg/kg, ip administered 60 mins before stress induction measured every 5 mins by actophotometer test. It counts as functional, organism-based. Also noted: dose 10 mg/kg.
Data set [17] can be described thus: Half life in Swiss albino mouse. The conditions noted are these: in vivo. It counts as ADME, organism-based.
Data set [18] has as its system Mus musculus. Nature of the data set: Antistress activity in Swiss albino mouse assessed as reversal of immobilization stress-induced decrease in number of line crossing at 2 mg/kg, ip administered 60 mins before stress induction measured after 10 mins by open field test. Set-up: dose 2 mg/kg. The data set is classed as functional, organism-based.
The subject of data set [19] is Mus musculus. Briefly: Antistress activity in Swiss albino mouse assessed as reversal of immobilization stress-induced decrease in frequency of rearing at 2 mg/kg, ip administered 60 mins before stress induction measured after 10 mins by open field test. It counts as functional, organism-based. Set-up: dose 2 mg/kg.
For data set [20], the system named is Mus musculus. Briefly: Antistress activity in Swiss albino mouse assessed as […] immobilization stress-induced decrease in non-social behavior at 2 mg/kg, ip administered 60 mins before stress induction measured after 10 mins by open field test. Also noted: dose 2 mg/kg. It counts as functional, organism-based.
The subject of data set [21] is Mus musculus. Nature of the data set: Antistress activity in Swiss albino mouse assessed as reversal of immobilization stress-induced decrease in locomotor activity at 2 mg/kg, ip administered 60 mins before stress induction measured every 5 mins by actophotometer test. Set-up: dose 2 mg/kg. It counts as functional, organism-based.

For the compound `O=C1[C@H]2[C@@H](c3ccccc3)N(c3ccccc3)O[C@H]2C(=O)N1c1cccc2ccccc12` (relative stereo), the result with Mus musculus [1], in the data set with Mus musculus [2], in the data set with Mus musculus [4], in the data set with Mus musculus [5], with Mus musculus [9] and in the data set on Mus musculus [10] was Active. The outcome with Mus musculus [11], in the data set on Mus musculus [12], in the data set on Mus musculus [13], in the data set on Mus musculus [14], with Mus musculus [15] and with Mus musculus [16] was Active. The outcome in the data set on Mus musculus [3] and in the data set with Mus musculus [6] was inactive. Moreover, the Activity result with Mus musculus [7] and with Mus musculus [8] was “Non-toxic” each time. This compound showed a half-life in [17] of 3 h.
On to `O=C1[C@@H]2[C@@H](ON(c3ccccc3)[C@H]2c2ccccc2)C(=O)N1c1cccc2ccccc12` (relative stereo), for which the Activity entry in the data set on Mus musculus [7] and with Mus musculus [8] was “Non-toxic” in each case. For the same compound, the outcome in the data set on Mus musculus [9], in the data set with Mus musculus [18], in the data set on Mus musculus [11], in the data set on Mus musculus [19], in the data set on Mus musculus [13] and in the data set on Mus musculus [20] was inactive. Further, the outcome with Mus musculus [15] and with Mus musculus [21] was inactive. Besides, the result with Mus musculus [10], with Mus musculus [12], with Mus musculus [14] and with Mus musculus [16] was Active.
In the case of `CN1C(=O)CN=C(c2ccccc2)c2cc(Cl)ccc21`, the outcome with Mus musculus [3], in the data set on Mus musculus [6], in the data set with Mus musculus [18], with Mus musculus [19], in the data set with Mus musculus [20] and with Mus musculus [21] was Active.
